Consider one compound from PMC12340436 (The Journal of Biological Chemistry, 2025).

Assay [1] addresses T1, RhsP2tox (Pseudomonas aeruginosa, UniProt A0A0H2Z8A2, E1576Q).
T1 construct: gene PA14_43100
The experiment in a line: biochemical.

The target of assay [2] is T2, RhsP2tox (Pseudomonas aeruginosa, UniProt A0A0H2Z8A2).
T2 construct: gene PA14_43100; N-terminal His tag
The format is binding.

The Kd is the concentration at which binding is half-saturated. Higher therefore signals lower affinity. Turning to `NC(=O)c1ccc[n+]([C@@H]2O[C@H](COP(=O)(O)OP(=O)(O)OC[C@H]3O[C@@H](n4cnc5c(N)ncnc54)[C@H](O)[C@@H]3O)[C@@H](O)[C@H]2O)c1` [NAD^+], the dissociation constant Kd amounted to 130 ± 38 µM in assay [1] and 172 ± 25 µM in assay [2].
